Experimental data taken from ChEMBL document CHEMBL1201862, “PubChem BioAssay data set” (2004).
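Cultured in 96-well plates, cells were exposed to test compound for 48 hours across five concentrations. GI50: concentration for 50% inhibition of growth.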 The source made the active and inactive calls. No stated cut-off is given here; in the data, active = GI50 up to about 1.1 µM and inactive = higher.

Columns and labels:
Test in all cases: NCI tumour cell line growth inhibition, 48 h
HOP-92 = system: HOP-92
NCI-H460 = system: NCI-H460
MOLT-4 = system: MOLT-4
M19-MEL = system: M19-MEL
EKVX = system: EKVX
SF-539 = system: SF-539
UACC-257 = system: UACC-257
NCI-H226 = system: NCI-H226
HCT-15 = system: HCT-15
DLD-1 = system: DLD-1
SNB-75 = system: SNB-75
DMS-114 = system: DMS-114
A498 = system: A498
CAKI-1 = system: CAKI-1
HOP-62 = system: HOP-62
HCT-116 = system: HCT-116
COLO 205 = system: COLO 205
M14 = system: M14
ACHN = system: ACHN
PC-3 = system: PC-3

| SMILES | GI50 (HOP-92) | GI50 (NCI-H460) | GI50 (MOLT-4) | GI50 (M19-MEL) | GI50 (EKVX) | GI50 (SF-539) | GI50 (UACC-257) | GI50 (NCI-H226) | GI50 (HCT-15) | GI50 (DLD-1) | GI50 (SNB-75) | GI50 (DMS-114) | GI50 (A498) | GI50 (CAKI-1) | GI50 (HOP-62) | GI50 (HCT-116) | GI50 (COLO 205) | GI50 (M14) | GI50 (ACHN) | GI50 (PC-3) |
| --- | --- | --- | --- | --- | --- | --- | --- | --- | --- | --- | --- | --- | --- | --- | --- | --- | --- | --- | --- | --- |
| CC(=O)OCC1OC(n2cc(F)c(=O)[nH]c2=O)C(NC(=O)OCc2ccccc2)C(OC(C)=O)C1OC(C)=O (centres undefined) | > 100 µM (inactive) | > 100 µM (inactive) | > 100 µM (inactive) | > 100 µM (inactive) | > 100 µM (inactive) | > 100 µM (inactive) | > 100 µM (inactive) | > 100 µM (inactive) | > 100 µM | > 100 µM (inactive) | > 100 µM (inactive) | > 100 µM (inactive) | > 100 µM (inactive) | > 100 µM (inactive) | > 100 µM (inactive) | > 100 µM (inactive) | – | – | – | – |
| O=NN(CCCl)C(=O)NC1CCSc2ccccc21 (centres undefined) | > 100 µM (inactive) | > 69.3 µM (inactive) | 35.1 µM (inactive) | > 100 µM (inactive) | 28.3 µM (inactive) | 27.4 µM (inactive) | > 100 µM (inactive) | > 100 µM (inactive) | > 100 µM | > 100 µM (inactive) | 87.3 µM (inactive) | 47.2 µM (inactive) | > 100 µM (inactive) | > 100 µM (inactive) | 0.776 µM (active) | > 100 µM (inactive) | > 100 µM (inactive) | – | – | – |
| Nc1ncnc2c1ncn2[C@@H]1O[C@H](COP(=O)(O)O)[C@@H](O)[C@@H]1O | > 31.3 µM (inactive) | > 50 µM (inactive) | > 38.8 µM (inactive) | > 50 µM (inactive) | > 50 µM (inactive) | > 50 µM (inactive) | > 50 µM (inactive) | > 50 µM (inactive) | > 50 µM | > 31.6 µM (inactive) | > 50 µM (inactive) | > 50 µM (inactive) | > 50 µM (inactive) | > 50 µM (inactive) | > 50 µM (inactive) | > 50 µM (inactive) | > 50 µM (inactive) | – | – | – |
| Nc1nc(SCCC/C=C/I)nc2c1ncn2C1OC(CO)C(O)C1O (centres undefined) | > 202 µM (inactive) | > 202 µM (inactive) | 99.5 µM (inactive) | > 202 µM (inactive) | – | > 202 µM (inactive) | > 202 µM (inactive) | > 202 µM (inactive) | > 202 µM | > 202 µM (inactive) | 78.9 µM (inactive) | > 202 µM (inactive) | > 202 µM (inactive) | > 202 µM (inactive) | > 202 µM (inactive) | > 202 µM (inactive) | > 202 µM (inactive) | > 202 µM (inactive) | > 202 µM (inactive) | – |
| O=C1C2=C(c3ccccc31)C(c1ccc(Cl)cc1)NC(S)=N2 (centres undefined) | 16 µM (inactive) | 34.8 µM (inactive) | 17.9 µM (inactive) | 20 µM (inactive) | 36.9 µM (inactive) | 15.7 µM (inactive) | 41.8 µM (inactive) | 16.9 µM (inactive) | 18.1 µM | 22.8 µM (inactive) | 15.9 µM (inactive) | 22.7 µM (inactive) | 79.1 µM (inactive) | 28.4 µM (inactive) | 28.2 µM (inactive) | 15.1 µM (inactive) | 25.5 µM (inactive) | 23.3 µM (inactive) | 42.7 µM (inactive) | – |
| C=C1C(=O)C[C@@]23CCC[C@@]12CC(O)C3 (some centres undefined) | 19.3 µM (inactive) | 20.8 µM (inactive) | 23.4 µM (inactive) | 24.8 µM (inactive) | 27.3 µM (inactive) | 25.6 µM (inactive) | 18.7 µM (inactive) | 21.2 µM (inactive) | 13 µM | 18.6 µM (inactive) | 18.4 µM (inactive) | 16.7 µM (inactive) | 15 µM (inactive) | > 10 µM (inactive) | > 63 µM (inactive) | 19 µM (inactive) | 21.3 µM (inactive) | – | – | – |
| CCOC(=O)c1ccc(N[C@@H]2c3cc4c(cc3C(c3cc(OC)c(O)c(OC)c3)[C@H]3C(=O)OCC32)OCO4)cc1O (some centres undefined) | 1.19 µM (inactive) | < 0.01 µM (active) | 0.0207 µM (active) | 0.893 µM (active) | 2.25 µM (inactive) | 0.685 µM (active) | 2.91 µM (inactive) | 0.256 µM (active) | 1.09 µM | 1.44 µM (inactive) | 0.548 µM (active) | 0.56 µM (active) | 0.607 µM (active) | 0.331 µM (active) | 0.306 µM (active) | 0.505 µM (active) | 1.18 µM (inactive) | – | – | – |
| Nc1nc(N)c2c(Cl)c(CNc3ccc(Cl)c(Cl)c3)ccc2n1 | 0.445 µM (active) | < 0.01 µM (active) | < 0.0536 µM (active) | 0.0238 µM (active) | 2.87 µM (inactive) | 0.016 µM (active) | 0.138 µM (active) | 12.9 µM (inactive) | < 0.01 µM | < 0.01 µM (active) | 2.64 µM (inactive) | < 0.01 µM (active) | 0.0682 µM (active) | – | 0.0171 µM (active) | < 0.01 µM (active) | 0.239 µM (active) | < 0.01 µM (active) | < 0.01 µM (active) | < 0.01 µM (active) |
| O=C(Nc1cccc(C(F)(F)F)c1)C(=O)C(C(=O)c1ccc(Cl)c(Cl)c1)C1OC(=O)c2ccccc21 (centres undefined) | 26.8 µM (inactive) | 31.8 µM (inactive) | 48.9 µM (inactive) | 18.8 µM (inactive) | 79.1 µM (inactive) | – | 51.8 µM (inactive) | 19.9 µM (inactive) | 35 µM | 41.9 µM (inactive) | 22.7 µM (inactive) | 21.6 µM (inactive) | 21.4 µM (inactive) | 88.1 µM (inactive) | 28.3 µM (inactive) | 17.5 µM (inactive) | 41.2 µM (inactive) | 81.1 µM (inactive) | 53.2 µM (inactive) | – |
| [N-]=[N+]=CC(=O)OCC(N)C(=O)O (centres undefined) | 82 µM (inactive) | 0.411 µM (active) | 0.216 µM (active) | 1.41 µM (inactive) | 0.413 µM (active) | 0.13 µM (active) | 95.9 µM (inactive) | 625 µM (inactive) | 0.297 µM | 0.344 µM (active) | 21.3 µM (inactive) | 1.59 µM (inactive) | 0.764 µM (active) | 5.85 µM (inactive) | 0.582 µM (active) | 0.403 µM (active) | 0.269 µM (active) | – | – | – |
| CN(C)CCCNc1ccc2nnn3c4ccc(O)cc4c(=O)c1c23 | 4.26 µM (inactive) | 0.453 µM (active) | 0.2 µM (active) | 12.6 µM (inactive) | 9.98 µM (inactive) | 6.44 µM (inactive) | 15.8 µM (inactive) | 2.51 µM (inactive) | 2.85 µM | 1.42 µM (inactive) | 3.37 µM (inactive) | 9.18 µM (inactive) | 6.92 µM (inactive) | 1.64 µM (inactive) | 3.27 µM (inactive) | 1.34 µM (inactive) | 2.51 µM (inactive) | 7.89 µM (inactive) | 1.26 µM (inactive) | 2.84 µM (inactive) |
| CCCCCCCCCCC(C)CCCCCCC(=O)O (centres undefined) | > 100 µM (inactive) | > 100 µM (inactive) | > 100 µM (inactive) | > 100 µM (inactive) | > 100 µM (inactive) | > 100 µM (inactive) | > 100 µM (inactive) | > 100 µM (inactive) | > 100 µM | > 100 µM (inactive) | > 100 µM (inactive) | > 100 µM (inactive) | > 100 µM (inactive) | > 100 µM (inactive) | > 100 µM (inactive) | > 100 µM (inactive) | > 100 µM (inactive) | > 100 µM (inactive) | > 100 µM (inactive) | – |
